Measured values taken from patent US8124793B2, “Derivatives of ethylene methanedisulfonate as cancer chemotherapeutic agents” (priority 2007, dated 2012).

Columns and labels:
Assay type in all cases: cell-based
UO-31 = experiment: NCI screen, growth of human tumor cells: Renal Cancer UO-31; conditions: UO-31 (Renal Cancer), 10^−4 molar
Description: (§1) In the NCI screening process, each compound was tested and described by a minimum of 60 data points. The test data include, but are not limited to the type of cancer, the molar concentration used in the screen, and the percent growth of the cancer. In some cases, NMR and elemental analysis were used for structural assignment.

NCI-H23 = experiment: NCI screen, growth of human tumor cells: Non-Small Cell Lung NCI-H23; conditions: NCI-H23 (Non-Small Cell Lung), 10^−4 molar
Description: as §1

HS 578T = experiment: NCI screen, growth of human tumor cells: Breast Cancer HS 578T; conditions: HS 578T (Breast Cancer), 10^−4 molar
Description: as §1

MDA-MB-231/ATCC = experiment: NCI screen, growth of human tumor cells: Breast Cancer MDA-MB-231/ATCC; conditions: MDA-MB-231/ATCC (Breast Cancer), 10^−4 molar
Description: as §1

SF-539 = experiment: NCI screen, growth of human tumor cells: CNS Cancer SF-539; conditions: SF-539 (CNS Cancer), 10^−4 molar
Description: as §1

HOP-92 = experiment: NCI screen, growth of human tumor cells: Non-Small Cell Lung HOP-92; conditions: HOP-92 (Non-Small Cell Lung), 10^−4 molar
Description: as §1

SR = experiment: NCI screen, growth of human tumor cells: Leukemia SR; conditions: SR (Leukemia), 10^−4 molar
Description: as §1

RPMI-8226 = experiment: NCI screen, growth of human tumor cells: Leukemia RPMI-8226; conditions: RPMI-8226 (Leukemia), 10^−4 molar
Description: as §1

UACC-257 = experiment: NCI screen, growth of human tumor cells: Melanoma UACC-257; conditions: UACC-257 (Melanoma), 10^−4 molar
Description: as §1

OVCAR-5 = experiment: NCI screen, growth of human tumor cells: Ovarian Cancer OVCAR-5; conditions: OVCAR-5 (Ovarian Cancer), 10^−4 molar
Description: as §1

NCI-H460 = experiment: NCI screen, growth of human tumor cells: Non-Small Cell Lung NCI-H460; conditions: NCI-H460 (Non-Small Cell Lung), 10^−4 molar
Description: as §1

CCRF-CEM = experiment: NCI screen, growth of human tumor cells: Leukemia CCRF-CEM; conditions: CCRF-CEM (Leukemia), 10^−4 molar
Description: as §1

U-251 = experiment: NCI screen, growth of human tumor cells: CNS Cancer U-251; conditions: U251, 10^−4 molar
Description: as §1

HCT-116 = experiment: NCI screen, growth of human tumor cells: Colon Cancer HCT-116; conditions: HCT-116, 10^−4 molar
Description: as §1

BT-549 = experiment: NCI screen, growth of human tumor cells: Breast Cancer BT-549; conditions: BT-549 (Breast Cancer), 10^−4 molar
Description: as §1

SF-268 = experiment: NCI screen, growth of human tumor cells: CNS Cancer SF-268; conditions: SF-268 (CNS Cancer), 10^−4 molar
Description: as §1

SK-MEL-28 = experiment: NCI screen, growth of human tumor cells: Melanoma SK-MEL-28; conditions: SK-MEL-28 (Melanoma), 10^−4 molar
Description: as §1

MCF7/ADR-RES = experiment: NCI screen, growth of human tumor cells: Breast Cancer MCF7/ADR-RES; conditions: MCF7/ADR-RES (Breast Cancer), 10^−4 molar
Description: as §1

UACC-62 = experiment: NCI screen, growth of human tumor cells: Melanoma UACC-62; conditions: UACC-62 (Melanoma), 10^−4 molar
Description: as §1

RXF-393 = experiment: NCI screen, growth of human tumor cells: Renal Cancer RXF-393; conditions: RXF-393 (Renal Cancer), 10^−4 molar
Description: as §1

K562 = experiment: NCI screen, growth of human tumor cells: Leukemia K562; conditions: K562 (Leukemia), 10^−4 molar
Description: as §1

SN12C = experiment: NCI screen, growth of human tumor cells: Renal Cancer SN12C; conditions: SN12C (Renal Cancer), 10^−4 molar
Description: as §1

SW620 = experiment: NCI screen, growth of human tumor cells: Colon Cancer SW620; conditions: SW620 (Colon Cancer), 10^−4 molar
Description: as §1

HT29 = experiment: NCI screen, growth of human tumor cells: Colon Cancer HT29; conditions: HT29 (Colon Cancer), 10^−4 molar
Description: as §1

NCI-H226 = experiment: NCI screen, growth of human tumor cells: Non-Small Cell Lung NCI-H226; conditions: NCI-H226 (Non-Small Cell Lung), 10^−4 molar
Description: as §1

PC-3 = experiment: NCI screen, growth of human tumor cells: Prostate Cancer PC-3; conditions: PC-3 (Prostate Cancer), 10^−4 molar
Description: as §1

IGROVI = experiment: NCI screen, growth of human tumor cells: Ovarian Cancer IGROVI; conditions: IGROVI (Ovarian Cancer), 10^−4 molar
Description: as §1

OVCAR-8 = experiment: NCI screen, growth of human tumor cells: Ovarian Cancer OVCAR-8; conditions: OVCAR-8 (Ovarian Cancer), 10^−4 molar
Description: as §1

human cancer cells = experiment: NCI screen summary over the cancers tested (negative growth of human cancer cells); conditions: 10^−4 M conc.; cancers with negative growth / cancers tested
Description: as §1
The derivatives in the tables are grouped using the same category as in the tables 1-6.

MCF 7 = experiment: NCI screen, growth of human tumor cells: Breast Cancer MCF 7; conditions: MCF 7 (Breast Cancer), 10^−4 molar
Description: as §1

KM12 = experiment: NCI screen, growth of human tumor cells: Colon Cancer KM12; conditions: KM12 (Colon Cancer), 10^−4 molar
Description: as §1

786-0 = experiment: NCI screen, growth of human tumor cells: Renal Cancer 786-0; conditions: 786-0 (Renal Cancer), 10^−4 molar
Description: as §1

HOP-62 = experiment: NCI screen, growth of human tumor cells: Non-Small Cell Lung HOP-62; conditions: HOP-62 (Non-Small Cell Lung), 10^−4 molar
Description: as §1

SNB-19 = experiment: NCI screen, growth of human tumor cells: CNS Cancer SNB-19; conditions: SNB-19 (CNS Cancer), 10^−4 molar
Description: as §1

HCT-15 = experiment: NCI screen, growth of human tumor cells: Colon Cancer HCT-15; conditions: HCT-15, 10^−4 molar
Description: as §1

COLO205 = experiment: NCI screen, growth of human tumor cells: Colon Cancer COLO205; conditions: COLO205 (Colon Cancer), 10^−4 molar
Description: as §1

DU-145 = experiment: NCI screen, growth of human tumor cells: Prostate Cancer DU-145; conditions: DU-145 (Prostate Cancer), 10^−4 molar
Description: as §1

With `CC=CC(=O)C1(Cc2ccc3c(c2)C(=O)c2ccccc2C3=O)S(=O)(=O)OCCOS1(=O)=O` [NSC 731263] the “percent of growth of human tumor cells” value (UO-31) was 1%, the “percent of growth of human tumor cells” value (NCI-H23) was 31% and the “percent of growth of human tumor cells” value (HS 578T) was −18%. For the same compound, the “percent of growth of human tumor cells” value (MDA-MB-231/ATCC) was −33%, the “percent of growth of human tumor cells” value (SF-539) was −23% and the “percent of growth of human tumor cells” value (HOP-92) was −16%. The “percent of growth of human tumor cells” value (SR) was 24%, the “percent of growth of human tumor cells” value (RPMI-8226) was −7% and the “percent of growth of human tumor cells” value (UACC-257) was −20%. For the same compound, the “percent of growth of human tumor cells” value (OVCAR-5) was 20%, the “percent of growth of human tumor cells” value (NCI-H460) was 2% and the “percent of growth of human tumor cells” value (CCRF-CEM) was 15%. The “% Growth” value (U-251) was −85%, the “% Growth” value (HCT-116) was −100% and the “percent of growth of human tumor cells” value (BT-549) was −20%. The “percent of growth of human tumor cells” value (SF-268) was −24%, the “percent of growth of human tumor cells” value (SK-MEL-28) was −23% and the “percent of growth of human tumor cells” value (MCF7/ADR-RES) was 11%. For the same compound, the “percent of growth of human tumor cells” value (UACC-62) was 16%, the “percent of growth of human tumor cells” value (RXF-393) was −45% and the “percent of growth of human tumor cells” value (K562) was 12%. For the same compound, the “percent of growth of human tumor cells” value (SN12C) was −53%, the “percent of growth of human tumor cells” value (SW620) was −38% and the “percent of growth of human tumor cells” value (HT29) was 1%. The “percent of growth of human tumor cells” value (NCI-H226) was 10%, the “percent of growth of human tumor cells” value (PC-3) was 11% and the “percent of growth of human tumor cells” value (IGROVI) was 3%. The “percent of growth of human tumor cells” value (OVCAR-8) was −39%, the “Percentage of cancers showing negative growth cancers tested” value (human cancer cells) was 10^−4 M conc. = 18/36 = 50% and the “percent of growth of human tumor cells” value (MCF 7) was −17%. The “percent of growth of human tumor cells” value (KM12) was 2%, the “percent of growth of human tumor cells” value (786-0) was 1% and the “percent of growth of human tumor cells” value (HOP-62) was −38%. For the same compound, the “percent of growth of human tumor cells” value (SNB-19) was 10%, the “% Growth” value (HCT-15) was −65% and the “percent of growth of human tumor cells” value (COLO205) was 5%. The “percent of growth of human tumor cells” value (DU-145) was 1%.
